25 molecules from EP4813463A2, “TYK2 INHIBITORS AND COMPOSITIONS AND METHODS THEREOF” (Lynk Pharmaceuticals Co. Ltd., priority 2023, dated 2024) can be followed below.

Where two headings read alike, the source gives them in different places.

In this test the target is T1, TYK2-JH2 domain (Homo sapiens, UniProt P29597).
T1 construct: JAK1-JH2 domain or TYK2-JH2 domain enzyme in assay buffer
Put plainly: Binding activity test for JH2 domain of TYK2 (Tb-antibody/tracer FRET). The method, then:
Binding Activity test for JH2 domain of JAK1 and TYK2 […] Add 8μL/well in echo source plate, echo will add 75nL/well with 3-fold serial dilution for 11 points in assay plate. 75nL DMSO for high control and low control. […] For low control, add 5μL/well assay buffer. And then spin down at 1000rpm and centrifuge for 30 seconds. After enzyme system prepared, add 5μL of Tb-antibody solution into each well of assay plate. Spin down at 1000 rpm and centrifuge for 30sec. After Tb-antibody added, also add 5μL of tracer into the assay plate. Spin down at 1000rpm and centrifuge for 30sec. Incubate for […] at 25°C firstly and then continue to incubate the plate at 4°C overnight. Read by envision in FRET mode. The Luminescence value was recorded by a multi-label reader Envision (PerkinElmer). […] Table 2. IC50 on JH2 domain activity (nM)

Where [1] appears, read: JH2 domain enzyme; 60 min at 25°C, then 4°C overnight; read-out: TYK2 JH2 Binding IC50.
[2] abbreviates: read-out: TYK2 JH2 Binding IC50; JH2 domain enzyme; 60 min at 25°C, then 4°C overnight.

T1 sequence (P29597 589-875 limits assumed): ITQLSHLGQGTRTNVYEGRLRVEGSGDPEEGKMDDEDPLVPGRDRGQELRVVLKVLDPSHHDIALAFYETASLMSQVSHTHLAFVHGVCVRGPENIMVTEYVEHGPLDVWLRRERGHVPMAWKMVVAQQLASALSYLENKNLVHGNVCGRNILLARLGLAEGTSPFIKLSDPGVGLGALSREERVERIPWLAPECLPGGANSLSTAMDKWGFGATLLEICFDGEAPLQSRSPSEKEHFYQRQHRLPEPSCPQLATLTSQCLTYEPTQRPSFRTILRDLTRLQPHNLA

In the case of `CCOC(c1ccc2c(c(Nc3cc(NC(=O)C4CC4)ncc3C(=O)OC)nn2C)c1OC)C(F)(F)F` (racemic) [Example 106, Methyl 6-(cyclopropanecarboxamido)-4-((5-(1-ethoxy-2,2,2-trifluoroethyl)-4-methoxy-1-methyl-1H-indazol-3-yl)amino)nicotinate], the IC50 under setting [1] stood at 1.31 nM.

As for `COC(=O)c1c(Nc2nn(C)c3ccc(C(OC)C(F)(F)F)c(OC)c23)cc(NC(=O)C2CC2)nc1F` (single isomer, unassigned) [Example 98A, Methyl (R*)-6-(cyclopropanecarboxamido)-2-fluoro-4-((4-methoxy-1-methyl-5-(2,2,2-trifluoro-1-methoxyethyl)-1H-indazol-3-yl)amino)nicotinate], the IC50 under setting [1] was > 298 nM.

For `COC(=O)c1c(Nc2nn(C)c3ccc(C(OC)C(F)(F)F)c(OC)c23)cc(NC(=O)C2CC2)nc1F` (single isomer, unassigned) [Example 98B, Methyl (S*)-6-(cyclopropanecarboxamido)-2-fluoro-4-((4-methoxy-1-methyl-5-(2,2,2-trifluoro-1-methoxyethyl)-1H-indazol-3-yl)amino)nicotinate], the IC50 under setting [1] turned out to be 3.88 nM.

Consider `CCOC(c1ccc2c(c(Nc3cc(NC(=O)C4CC4)ncc3C(=O)OC)nn2C)c1OC)C(F)(F)F` (single isomer, unassigned) [Example 106A, Methyl (R*)-6-(cyclopropanecarboxamido)-4-((5-(1-ethoxy-2,2,2-trifluoroethyl)-4-methoxy-1-methyl-1H-indazol-3-yl)amino)nicotinate], for which the IC50 under setting [1] worked out at 4.31 nM.

As for `COC(=O)c1cnc(NC(=O)C2CC2)cc1Nc1nn(C)c2ccc(C(OC)C(C)(F)F)c(OC)c12` (single isomer, unassigned) [Example 115B, Methyl (R*)-6-(cyclopropanecarboxamido)-4-((5-(2,2-difluoro-1-methoxypropyl)-4-methoxy-1-methyl-1H-indazol-3-yl)amino)nicotinate], the IC50 under setting [1] is 1.22 nM.

For the molecule `COC(=O)c1cnc(NC(=O)[C@@H]2C[C@@H]2F)cc1Nc1nn(C)c2ccc(C(O)C(F)(F)F)c(OC)c12` (single isomer, unassigned) [Example 122B, Methyl 6-((1S,2S)-2-fluorocyclopropane-1-carboxamido)-4-((4-methoxy-1-methyl-5-((R*)-2,2,2-trifluoro-1-hydroxyethyl)-1H-indazol-3-yl)amino) nicotinate], the IC50 under setting [2] was 0.733 nM.

Take `[2H]C([2H])([2H])OC(c1ccc2c(c(Nc3cc(NC(=O)C4CC4)ncc3C(=O)OC)nn2CCOC)c1OC)C(F)(F)F` (single isomer, unassigned) [Example 157B, Methyl (R*)-6-(cyclopropanecarboxamido)-4-((4-methoxy-1-(2-methoxyethyl)-5-(2,2,2-trifluoro-1-methoxyethyl)-1H-indazol-3-yl)amino)nicotinate]: the IC50 under setting [1] worked out at 1.41 nM.

Consider `[2H]C([2H])([2H])O[C@H](c1ccc2c(c(Nc3cc(NC(=O)C4CC4)ncc3C(=O)OC)nn2C([2H])([2H])[2H])c1OC)C(F)(F)F` [Example 53A, Methyl (R)-6-(cyclopropanecarboxamido)-4-((4-methoxy-1-(methyl-d3)-5-(2,2,2-trifluoro-1-(methoxy-d3)ethyl)-1H-indazol-3-yl)amino)nicotinate], for which the IC50 under setting [1] was found to be 0.627 nM.

With `[2H]C([2H])([2H])OC(=O)c1cnc(NC(=O)C2CC2)cc1Nc1ncc2ccn(C([2H])([2H])C([2H])([2H])[2H])c2c1OC([2H])([2H])[2H]` [Example 61, Methyl-d3 6-(cyclopropanecarboxamido)-4-((1-(ethyl-d5)-7-(methoxy-d3)-1H-pyrrolo[3,2-c]pyridin-6-yl)amino) nicotinate], the IC50 under setting [2] stood at 1.36 nM.

In the case of `[2H]C([2H])([2H])NC(=O)c1cnc(NC(=O)C2CC2)cc1Nc1cnn2ccc(C)c(NC)c12` [Example 97, 6-(Cyclopropanecarbonylamino)-4-[[5-methyl-4-(methylamino)pyrazolo [1,5-a]pyridin-3-yl]amino]-N-(trideuteriomethyl)pyridine-3-carboxamide], under setting [1], the IC50 turned out to be 2.37 nM.

For `COC(=O)c1cnc(NC(=O)C2CC2)cc1Nc1cnn2ccc(C3CCCO3)c(OC)c12` (stereo not shown) [Example 99, Methyl 6-(cyclopropanecarboxamido)-4-((4-methoxy-5-(tetrahydrofuran-2-yl)pyrazolo[1,5-a]pyridin-3-yl)amino)nicotinate], the IC50 under setting [1] was found to be 1.79 nM.

For the molecule `COC(=O)c1nnc(NC(=O)C2CC2)cc1Nc1nn(C)c2ccc(C(OC)C(F)(F)F)c(OC)c12` (stereo not shown) [Example 101, Methyl 6-(cyclopropanecarboxamido)-4-((4-methoxy-1-methyl-5-(2,2,2-trifluoro-1-methoxyethyl)-1H-indazol-3-yl)amino)pyridazine-3-carboxylate], the IC50 under setting [1] was > 298 nM.

As for `COC(=O)c1cnc(NC(=O)C2CC2)cc1Nc1ncn2ccc(C)c(OC)c12` [Example 103, Methyl 6-(cyclopropanecarboxamido)-4-((8-methoxy-7-methylimidazo[1,5-a]pyridin-1-yl)amino)nicotinate], under setting [1], the IC50 turned out to be 5.84 nM.

Consider `COC(=O)c1cnc(NC(=O)C2CC2)cc1Nc1nn(COCC[Si](C)(C)C)c2ccc(C(OC)C(F)(F)F)c(OC)c12` (stereo not shown) [Example 104, Methyl 6-(cyclopropanecarboxamido)-4-((4-methoxy-5-(2,2,2-trifluoro-1-methoxyethyl)-1-((2-(trimethylsilyl)ethoxy)methyl)-1H-indazol-3-yl)amino)nicotinate], for which, under setting [1], the half-inhibitory concentration (IC50) turned out to be 13.7 nM.

Take `COC(=O)c1cnc(NC(=O)C2CC2)cc1Nc1nccc2c1N(C)[C@@H](C)c1nn(C)nc1-2` [Example 109, Methyl (S)-6-(cyclopropanecarboxamido)-4-((2,4,5-trimethyl-4,5-dihydro-2H-[1,2,3]triazolo[4,5-c][1,7]naphthyridin-6-yl)amino)nicotinate]: the IC50 under setting [1] is 0.836 nM.

As for `COC(=O)c1cnc(NC(=O)C2CC2)cc1Nc1ncn2ccc(C(OC)C(F)(F)F)c(OC)c12` (stereo not shown) [Example 110, Methyl 6-(cyclopropanecarboxamido)-4-((8-methoxy-7-(2,2,2-trifluoro-1-methoxyethyl)imidazo[1,5-a]pyridin-1-yl)amino)nicotinate], the IC50 under setting [1] came out at 2.47 nM.

Take `COC(=O)c1cnc(NC(=O)C2CC2)cc1Nc1nn(C)c2ccc(C(OC)C(C)C)c(OC)c12` (stereo not shown) [Example 118, Methyl 6-(cyclopropanecarboxamido)-4-((4-methoxy-5-(1-methoxy-2-methylpropyl)-1-methyl-1H-indazol-3-yl)amino)nicotinate]: the IC50 under setting [1] came to 0.943 nM.

`COC(=O)c1cnc(NC(=O)C2CC2)cc1Nc1nn(C2CC2)c2ccc(C(OC)C(F)(F)F)c(OC)c12` (stereo not shown) [Example 119, Methyl 6-(cyclopropanecarboxamido)-4-((1-cyclopropyl-4-methoxy-5-(2,2,2-trifluoro-1-methoxyethyl)-1H-indazol-3-yl)amino)nicotinate]: the IC50 under setting [1] amounted to 0.308 nM.

Regarding `CCC(OC)c1ccc2c(c(Nc3cc(NC(=O)C4CC4)ncc3C(=O)OC)nn2C)c1OC` (stereo not shown) [Example 121, Methyl 6-(cyclopropanecarboxamido)-4-((4-methoxy-5-(1-methoxypropyl)-1-methyl-1H-indazol-3-yl)amino)nicotinate], the IC50 under setting [1] is 0.405 nM.

`COC(=O)c1cnc(NC(=O)C2CC2)cc1Nc1c2c(OC)c(C(C)C(F)(F)F)ccc2nn1C` (stereo not shown) [Example 124, Methyl 6-(cyclopropanecarboxamido)-4-((4-methoxy-2-methyl-5-(1,1,1-trifluoropropan-2-yl)-2H-indazol-3-yl)amino)nicotinate]: the IC50 under setting [1] stood at 90.3 nM.

In the case of `COC(=O)c1cnc(NC(=O)C2CC2)cc1Nc1nn(C)c2ccc(C#N)c(OC)c12` [Example 126, Methyl 4-((5-cyano-4-methoxy-1-methyl-1H-indazol-3-yl)amino)-6-(cyclopropanecarboxamido)nicotinate], under setting [1], the IC50 was found to be 1.79 nM.

In the case of `COC(=O)c1cnc(NC(=O)C2CC2)cc1Nc1ccn2ncc(C(OC)C(F)(F)F)c2c1OC` (stereo not shown) [Example 131, Methyl 6-(cyclopropanecarboxamido)-4-((4-methoxy-3-(2,2,2-trifluoro-1-methoxyethyl)pyrazolo[1,5-a]pyridin-5-yl)amino)nicotinate], the IC50 under setting [1] turned out to be 12.7 nM.

`COC(=O)c1cnc(NC(=O)C2CC2)cc1Nc1nn(CC#N)c2ccc(C(OC)C(F)(F)F)c(OC)c12` (stereo not shown) [Example 134, Methyl 4-((1-(cyanomethyl)-4-methoxy-5-(2,2,2-trifluoro-1-methoxyethyl)-1H-indazol-3-yl)amino)-6-(cyclopropanecarboxamido)nicotinate]: the IC50 under setting [1] is 1.52 nM.

`COC(=O)c1cnc(NC(=O)C2CC2)cc1Nc1nn(C)c2cnc(C(OC)C(F)(F)F)c(OC)c12` (stereo not shown) [Example 138, Methyl 6-(cyclopropanecarbonylamino)-4-[[4-methoxy-1-methyl-5-(2,2,2-trifluoro-1-methoxy-ethyl)pyrazolo[3,4-c]pyridin-3-yl]amino]pyridine-3-carboxylate]: the IC50 under setting [1] turned out to be 1.22 nM.

For the molecule `CCC(O)c1cnc(NC(=O)C2CC2)cc1Nc1nn(C)c2ccc([C@H](OC)C(F)(F)F)c(OC)c12` (stereo partly drawn) [Example 143, N-(5-(1-hydroxypropyl)-4-((4-methoxy-1-methyl-5-((S)-2,2,2-trifluoro-1-methoxyethyl)-1H-indazol-3-yl)amino)pyridin-2-yl)cyclopropanecarboxamide], the IC50 under setting [1] was determined as 34.7 nM.

As a reminder, the IC50 is the concentration that gives 50% inhibition.
